The text below walks through data of ChEMBL document CHEMBL1159343, “Isolation and structure of palstatin from the Amazon tree Hymeneae palustris(1)” (2003).

What is called GI50 is the concentration at which growth is held to half of that of the control. A higher GI50 goes with less potent growth inhibition. One may read the MIC as the lowest concentration found to suppress growth. Lower therefore signals a more susceptible organism.

The structures appear in SMILES notation. Converted amounts (≈) assume the structure as drawn. The source made the active and inactive calls. The calls are words filed in the database; no cut-off is given here.

The subject of one experiment is SF-268. As to the kind of experiment: Cytotoxicity against human SF268 cells after 48 hrs by SRB assay. The class given is functional. The conditions noted are these: SF-268, 48 h.
The test system of experiment [1] is Stenotrophomonas maltophilia. As to the kind of experiment: Antimicrobial activity against Stenotrophomonas maltophilia. The format is functional, organism-based.
The next experiment deals with DU-145. The experiment in a line: Cytotoxicity against human DU145 cells after 48 hrs by SRB assay. The conditions noted are these: DU-145, 48 h. The class given is functional.
For another experiment, the system named is Neisseria gonorrhoeae. As to the kind of experiment: Antimicrobial activity against Neisseria gonorrhoeae. The class given is functional.
The subject of another experiment is Escherichia coli. As to the kind of experiment: Antimicrobial activity against Escherichia coli. The class given is functional.
For another experiment, the system named is NCI-H460. As to the kind of experiment: Cytotoxicity against human NCI-H460 cells after 48 hrs by SRB assay. The format is functional. The note with it: NCI-H460, 48 h. For orientation: Sulforhodamine B stains cellular protein and so reports cell mass.
Another experiment relates to Streptococcus pneumoniae. The experiment in a line: Antimicrobial activity against Streptococcus pneumoniae. The class given is functional, organism-based.
The subject of a further experiment is Staphylococcus aureus. As to the kind of experiment: Antimicrobial activity against Staphylococcus aureus. The format is functional, organism-based.
Another experiment relates to Micrococcus luteus. As to the kind of experiment: Antimicrobial activity against Micrococcus luteus. The format is functional, organism-based.
A further experiment relates to Candida albicans. As to the kind of experiment: Antimicrobial activity against Candida albicans. The class given is functional, organism-based.
The next experiment relates to Enterobacter cloacae. As to the kind of experiment: Antimicrobial activity against Enterobacter cloacae. The class given is functional, organism-based.
Another experiment relates to P388. As to the kind of experiment: Cytotoxicity against mouse P388 cells after 48 hrs by SRB assay. The class given is functional. The conditions noted are these: P388, 48 h.
In the next experiment the test system is MCF7. The experiment in a line: Cytotoxicity against human MCF7 cells after 48 hrs by SRB assay. The format is functional. The conditions noted are these: MCF7, 48 h.
For another experiment, the system named is Cryptococcus neoformans. The experiment in a line: Antimicrobial activity against Cryptococcus neoformans. The class given is functional, organism-based.
For a further experiment, the system named is KM-20L2. The experiment in a line: Cytotoxicity against human KM20L2 cells after 48 hrs by SRB assay. The format is functional. The conditions noted are these: KM-20L2, 48 h.
Another experiment relates to BXPC-3. As to the kind of experiment: Cytotoxicity against human BxPC3 cells after 48 hrs by SRB assay. The format is functional. The conditions noted are these: BXPC-3, 48 h.

On to `COc1cc([C@H]2Oc3cc(-c4cc(=O)c5c(O)cc(O)cc5o4)cc(OC)c3O[C@@H]2CO)ccc1O`, for which the concentration for 50% growth inhibition (GI50) amounted to 2.2 µg/mL (≈ 4.45 µM) in the experiment on SF-268; 1.8 µg/mL (≈ 3.64 µM) with DU-145; 2 µg/mL (≈ 4.04 µM) in the experiment with NCI-H460; 2.7 µg/mL (≈ 5.46 µM) in the experiment with P388; 2.4 µg/mL (≈ 4.85 µM) in the experiment on MCF7; 1.9 µg/mL (≈ 3.84 µM) in the experiment on KM-20L2. In the experiment with BXPC-3, halving of growth (GI50) required 1.8 µg/mL (≈ 3.64 µM). For the same compound, the outcome (in [1]; in the experiment on Streptococcus pneumoniae; with Staphylococcus aureus; with Micrococcus luteus; with Candida albicans; in the experiment on Enterobacter cloacae) was inactive. The result in the experiment with Cryptococcus neoformans was inactive. Also, the figures for the MIC in the experiment on Neisseria gonorrhoeae and against Escherichia coli were 0.625 µg/mL (≈ 1.26 µM) and 32 µg/mL (≈ 64.7 µM), respectively.

As for `COc1cc([C@H]2Oc3cc(-c4cc(=O)c5c(O)cc(O)cc5o4)ccc3O[C@@H]2CO)ccc1O` [HYDNOCARPIN], the GI50 amounted to 2.6 µg/mL (≈ 5.6 µM) in the experiment with SF-268; 1.9 µg/mL (≈ 4.09 µM) with DU-145; 2.3 µg/mL (≈ 4.95 µM) with NCI-H460; 9.5 µg/mL (≈ 20.5 µM) in the experiment with P388; 2.7 µg/mL (≈ 5.81 µM) with MCF7; 2 µg/mL (≈ 4.31 µM) in the experiment on KM-20L2. In the experiment on BXPC-3, the GI50 amounted to 1.5 µg/mL (≈ 3.23 µM). Further, the result (in experiment [1]; in the experiment on Streptococcus pneumoniae; in the experiment with Staphylococcus aureus; with Micrococcus luteus; in the experiment on Candida albicans; with Enterobacter cloacae) was inactive. The outcome in the experiment on Cryptococcus neoformans was inactive. Moreover, the minimum inhibitory concentration (MIC) against Neisseria gonorrhoeae was determined as 0.5 µg/mL (≈ 1.08 µM).

In the case of `O=c1cc(-c2ccc(O)c(O)c2)oc2cc(O)cc(O)c12` [LUTEOLIN], the 50% growth inhibitory concentration (GI50) was 9 µg/mL (≈ 31.4 µM) in the experiment on SF-268; 4.4 µg/mL (≈ 15.4 µM) with DU-145; 3.8 µg/mL (≈ 13.3 µM) with NCI-H460; > 10 µg/mL in the experiment with P388; 9.4 µg/mL (≈ 32.8 µM) in the experiment with MCF7; > 10 µg/mL in the experiment with KM-20L2. Also, the GI50 with BXPC-3 was > 10 µg/mL. The result (in [1]; in the experiment with Streptococcus pneumoniae; in the experiment on Staphylococcus aureus; with Micrococcus luteus; in the experiment with Candida albicans; with Enterobacter cloacae) was inactive. Besides, the result in the experiment on Cryptococcus neoformans was inactive. Also, the minimal inhibitory concentration (MIC) worked out at 16 µg/mL (≈ 55.9 µM) in the experiment with Neisseria gonorrhoeae and 64 µg/mL (≈ 224 µM) in the experiment on Escherichia coli.

Turning to `COc1cc(-c2cc(=O)c3c(O)cc(O)cc3o2)ccc1O` [CHRYSOERIOL], the concentration for 50% growth inhibition (GI50) worked out at 1.7 µg/mL (≈ 5.66 µM) in the experiment on SF-268; 1.1 µg/mL (≈ 3.66 µM) in the experiment with DU-145; 2.1 µg/mL (≈ 6.99 µM) in the experiment with NCI-H460; 4 µg/mL (≈ 13.3 µM) in the experiment with P388; 3.1 µg/mL (≈ 10.3 µM) with MCF7; 2.5 µg/mL (≈ 8.33 µM) in the experiment on KM-20L2. Besides, the GI50 with BXPC-3 was determined as 2.6 µg/mL (≈ 8.66 µM). Moreover, the result (in [1]; in the experiment on Streptococcus pneumoniae; with Staphylococcus aureus; with Micrococcus luteus; with Candida albicans; in the experiment on Enterobacter cloacae) was inactive. Besides, the outcome in the experiment on Cryptococcus neoformans was inactive.

As to `COc1cc(-c2cc(=O)c3c(O)cc(O)cc3o2)cc(OC)c1O` [TRICIN], the GI50 is 3 µg/mL (≈ 9.08 µM) with SF-268; 4.6 µg/mL (≈ 13.9 µM) in the experiment on DU-145; 6.5 µg/mL (≈ 19.7 µM) in the experiment with NCI-H460; > 10 µg/mL with P388; 7.7 µg/mL (≈ 23.3 µM) in the experiment on MCF7; > 10 µg/mL in the experiment on KM-20L2. In the experiment with BXPC-3, this compound gave a 50% growth inhibitory concentration (GI50) of 7.5 µg/mL (≈ 22.7 µM). Besides, the outcome (in experiment [1]; in the experiment on Streptococcus pneumoniae; in the experiment on Staphylococcus aureus; in the experiment with Micrococcus luteus; in the experiment on Candida albicans; in the experiment on Enterobacter cloacae) was inactive. In addition, in the experiment on Cryptococcus neoformans, the result was inactive.

With `COc1cc([C@H]2Oc3cc(-c4cc(=O)c5c(O)cc(O)cc5o4)cc(OC)c3O[C@@H]2CO)cc(OC)c1O` [PALSTATIN], the GI50 with SF-268 is > 10 µg/mL; in the experiment with DU-145, > 10 µg/mL; with NCI-H460, 5.9 µg/mL (≈ 11.2 µM); with P388, 8.5 µg/mL (≈ 16.2 µM); in the experiment with MCF7, 3.6 µg/mL (≈ 6.86 µM); with KM-20L2, > 10 µg/mL. In the experiment with BXPC-3, this compound came in with a GI50 of 3.2 µg/mL (≈ 6.1 µM). The outcome (in experiment [1]; in the experiment on Streptococcus pneumoniae; in the experiment with Staphylococcus aureus; in the experiment with Micrococcus luteus; in the experiment with Candida albicans; with Enterobacter cloacae) was inactive. Further, the outcome in the experiment on Cryptococcus neoformans was inactive. Moreover, in the experiment with Neisseria gonorrhoeae, the MIC amounted to 1 µg/mL (≈ 1.91 µM).
